In patent US20140187771A1, “AMORPHOUS SOLID SALTS” (Gilead Sciences, Inc., priority 2011, published 2014):

How the values were obtained:
[1] = Glass transition temperature (Tg) by modulated differential scanning calorimetry (mDSC); assay type: physicochemical; details: for Tg (° C.) First heating / Tg (° C.) Second heating: mDSC, precipitated salts of Compound 1; for Tg (° C.) First heating: first heating cycle; for Tg (° C.) Second heating: second heating cycle (intrinsic Tg in dry state); for Tg (° C.): spray dried salts (from acetone)
Method: Modulated differential scanning calorimetry (mDSC) was used to characterize salts of the invention. Solid samples were placed in hermetically sealed aluminum pan with a pinhole. Modulation amplitude of ±0.8° C. with a period of 60 sec was applied to the sample heated at 2° C./min under dried nitrogen purge using TA instruments (New Castle, Del., USA) model 1000.
Heat-cool-heat cycles were applied to allow for moisture evaporation during first heating cycle and to erase thermal history of the sample, which allowed for the determination of the intrinsic glass transition temperature (Tg) in dry state.

[2] = Hygroscopicity at room temperature (weight gain and visual phase transition after 24 hours at controlled RH); assay type: physicochemical
Method: Hygroscopicity of salts of invention were measured by placing 20-50 mg of the sample in an uncapped scintillation vial. The vial was stored at ambient temperature in a Pyrex brand desiccator (VWR, International, CT). […] The relative humidity was confirmed using a digital hygrometer pen (VWR International, CT). An empty scintillation vial was also placed in the desiccator as a control. […] Visual observation of phase transition was also noted.

[3] = 55% RH, room temperature, 24 hours
[4] = 55% RH, room temperature, 24 hours, visual observation
[5] = 75% RH, room temperature, 24 hours
[6] = 75% RH, room temperature, 24 hours, visual observation

Row | Compound | Tg (° C.) First heating [1] [°C] | Tg (° C.) Second heating [1] [°C] | % weight gain [2, 3] [%] | Phase transition [2, 4] | % weight gain [2, 5] [%] | Phase transition [2, 6] | Tg (° C.) [1] [°C] | Phase transition ([2]; spray dried salts, 55% RH) | Weight gain at 55% RH RH (%) ([2]; spray dried salts, 55% RH) | Phase transition ([2]; spray dried salts, 75% RH) | Weight gain at 75% (%) ([2]; spray dried salts, 75% RH)
1 | CC(C)c1nc(CN(C)C(=O)N[C@@H](CCN2CCOCC2)C(=O)N[C@H](CC[C@H](Cc2ccccc2)NC(=O)OCc2cncs2)Cc2ccccc2)cs1.CCS(=O)(=O)O | −0.23 | 37 | 8.78 | Yes | 16.2 | Yes | – | – | – | – | –
2 | CC(C)c1nc(CN(C)C(=O)N[C@@H](CCN2CCOCC2)C(=O)N[C@H](CC[C@H](Cc2ccccc2)NC(=O)OCc2cncs2)Cc2ccccc2)cs1.CC1(C)C2CCC1(CS(=O)(=O)O)C(=O)C2 [camphorosulfonate] | 66 | 66 | 2.99 | No | 5.9 | Yes | – | – | – | – | –
3 | CC(C)c1nc(CN(C)C(=O)N[C@@H](CCN2CCOCC2)C(=O)N[C@H](CC[C@H](Cc2ccccc2)NC(=O)OCc2cncs2)Cc2ccccc2)cs1 [citrate] | 59 | 60 | 3.17 | No | 6.5 | Partial | – | – | – | – | –
4 | CC(C)c1nc(CN(C)C(=O)N[C@@H](CCN2CCOCC2)C(=O)N[C@H](CC[C@H](Cc2ccccc2)NC(=O)OCc2cncs2)Cc2ccccc2)cs1.O=C(O)c1cc(O)ccc1O [gentisate] | 62 | 62 | 2.17 | No | 5.2 | No | 61 | no | 3.1 | partial | 5.6
5 | CC(C)c1nc(CN(C)C(=O)N[C@@H](CCN2CCOCC2)C(=O)N[C@H](CC[C@H](Cc2ccccc2)NC(=O)OCc2cncs2)Cc2ccccc2)cs1.O=C(O)CNC(=O)c1ccccc1 [hippurate] | 31 | 44 | 3.37 | Partial | 5.61 | Yes | – | – | – | – | –
6 | CC(C)c1nc(CN(C)C(=O)N[C@@H](CCN2CCOCC2)C(=O)N[C@H](CC[C@H](Cc2ccccc2)NC(=O)OCc2cncs2)Cc2ccccc2)cs1.Cl [hydrochloride] | 34 | 59 | 4.32 | Partial | 6.92 | Yes | 35 | partial | 7.8 | yes | 9.4
7 | O=C(O)CCC(=O)C(=O)O [ketoglutarate] | 24 | 42 | 3.27 | Yes | 5.23 | Yes | – | – | – | – | –
8 | CC(C)c1nc(CN(C)C(=O)N[C@@H](CCN2CCOCC2)C(=O)N[C@H](CC[C@H](Cc2ccccc2)NC(=O)OCc2cncs2)Cc2ccccc2)cs1.CC(O)C(=O)O [lactate] | 2 | 17 | – | – | 5.76 | Yes | – | – | – | – | –
9 | CC(C)c1nc(CN(C)C(=O)N[C@@H](CCN2CCOCC2)C(=O)N[C@H](CC[C@H](Cc2ccccc2)NC(=O)OCc2cncs2)Cc2ccccc2)cs1.O=C(O)CC(=O)O [malonate] | 14 | 36 | 3.43 | Yes | 6.18 | Yes | – | – | – | – | –
10 | CC(C)c1nc(CN(C)C(=O)N[C@@H](CCN2CCOCC2)C(=O)N[C@H](CC[C@H](Cc2ccccc2)NC(=O)OCc2cncs2)Cc2ccccc2)cs1.O=C(O)C(=O)O.O=C(O)C(=O)O [oxalate] | 34 | 46 | 4.38 | Partial | 9.36 | Yes | – | – | – | – | –
11 | CC(C)c1nc(CN(C)C(=O)N[C@@H](CCN2CCOCC2)C(=O)N[C@H](CC[C@H](Cc2ccccc2)NC(=O)OCc2cncs2)Cc2ccccc2)cs1.O=P(O)(O)O [phosphate] | 66 | 69 | 4.52 | No | 7.9 | Partial | 92 | no | 4.7 | yes | 8.0
12 | CC(C)c1nc(CN(C)C(=O)N[C@@H](CCN2CCOCC2)C(=O)N[C@H](CC[C@H](Cc2ccccc2)NC(=O)OCc2cncs2)Cc2ccccc2)cs1.O=C1NS(=O)(=O)c2ccccc21 [saccharinate] | 37 | 56 | 1.89 | No | 4.09 | Yes | 36.4 | no | – | yes | 4.0
13 | CC(C)c1nc(CN(C)C(=O)N[C@@H](CCN2CCOCC2)C(=O)N[C@H](CC[C@H](Cc2ccccc2)NC(=O)OCc2cncs2)Cc2ccccc2)cs1.O=C(O)CCC(=O)O [succinate] | 16 | 35 | 3.95 | Yes | 6.09 | Yes | – | – | – | – | –
14 | O=S(=O)(O)O [sulfate] | 71 | 71 | – | Partial | – | Yes | – | – | – | – | –
15 | CC(C)c1nc(CN(C)C(=O)NC(CCN2CCOCC2)C(=O)NC(CCC(Cc2ccccc2)NC(=O)OCc2cncs2)Cc2ccccc2)cs1.O=C(O)c1ccc2ccccc2c1O (centres unmarked) [xinafoate] | 49 | 51 | 0.29 | No | 1.97 | No | 42 | no | 2.6 | no | 3.3
16 | ascorbate | 42 | 60 | 3.23 | No | 7.56 | Yes | – | – | – | – | –
17 | benzoate | 14 | 23 | 1.99 | Yes | 3.63 | Yes | – | – | – | – | –
18 | dichloroacetate | – | 34 | 3.36 | Yes | 7.3 | Yes | – | – | – | – | –
19 | fumarate | 37 | 51 | 2.11 | No | 6.02 | Yes | 31 | no | 3.2 | yes | 6.0
20 | maleate | 24 | 37 | 4.41 | Yes | 6.67 | Yes | – | – | – | – | –
21 | tartarate | 44 | 66 | 3.23 | No | 7.6 | Partial | 67 | no | 5.8 | yes | 6.3
22 | tosylate | 32 | 46 | 3.11 | Partial | 6.5 | Yes | – | – | – | – | –
